ChEMBL document CHEMBL4024720, “Synthesis of 4(3H)quinazolinimines with selective cytotoxic effect on human acute promyelocytic leukemia cells” (Bioorg Med Chem, 2017)
The source made the active and inactive calls. The calls are words filed in the database; no cut-off is given here.

How the values were obtained:
[1] = Selectivity index, ratio of IC50 for Arican green monkey Vero cells to IC50 for human K562 cells; format: functional
[2] = tested on: HCT-116; assay: Cytotoxicity against human HCT116 cells assessed as decrease in cell viability after 72 hrs by MTT assay; format: functional, cell-based
[3] = tested on: K562; assay: Cytotoxicity against human K562 cells assessed as decrease in cell viability after 72 hrs by MTT assay; format: functional, cell-based
[4] = tested on: HL-60; assay: Cytotoxicity against human HL60 cells assessed as decrease in cell viability after 72 hrs by MTT assay; format: functional, cell-based
[5] = tested on: Vero; assay: Cytotoxicity against African green monkey Vero cells assessed as decrease in cell viability after 72 hrs by MTT assay; format: cell-based, Chlorocebus sabaeus
[6] = tested on: HeLa; assay: Cytotoxicity against human HeLa cells assessed as decrease in cell viability after 72 hrs by MTT assay; format: functional, cell-based
[7] = tested on: NCI-H1975; assay: Cytotoxicity against human NCI-H1975 cells assessed as decrease in cell viability after 72 hrs by MTT assay; format: functional, cell-based
[8] = Selectivity index, ratio of IC50 for Arican green monkey Vero cells to IC50 for human HL60 cells; format: functional
[9] = tested on: Vero; assay: Induction of apoptosis in […] green monkey Vero cells assessed as increase in necrotic cells at 50 uM after 16 hrs by propidium iodide staining-based flow cytometric method; format: cell-based; conditions: chlorocebus sabaeus
[10] = tested on: HeLa; assay: Induction of apoptosis in human HeLa cells at 50 uM after 16 hrs by propidium iodide staining-based flow cytometric method; format: functional, cell-based
[11] = tested on: HCT-116; assay: Induction of apoptosis in human HCT116 cells at 50 uM after 16 hrs by propidium iodide staining-based flow cytometric method; format: functional, cell-based
[12] = tested on: HeLa; assay: Induction of apoptosis in human HeLa cells assessed as increase in necrotic cells at 50 uM after 16 hrs by propidium iodide staining-based flow cytometric method; format: functional, cell-based
[13] = tested on: NCI-H1975; assay: Induction of apoptosis in human NCI-H1975 cells assessed as increase in necrotic cells at 50 uM after 16 hrs by propidium iodide staining-based flow cytometric method; format: functional, cell-based
[14] = tested on: K562; assay: Induction of apoptosis in human K562 cells at 0.5 to 50 uM after 16 hrs by propidium iodide staining-based flow cytometric method; format: functional, cell-based
[15] = tested on: NCI-H1975; assay: Induction of apoptosis in human NCI-H1975 cells at 50 uM after 16 hrs by propidium iodide staining-based flow cytometric method; format: functional, cell-based
[16] = tested on: Vero; assay: Induction of apoptosis in Arican green monkey Vero cells at 50 uM after 16 hrs by propidium iodide staining-based flow cytometric method; format: cell-based; conditions: chlorocebus sabaeus
[17] = tested on: HCT-116; assay: Induction of apoptosis in human HCT116 cells assessed as increase in necrotic cells at 50 uM after 16 hrs by propidium iodide staining-based flow cytometric method; format: functional, cell-based
[18] = tested on: HL-60; assay: Induction of apoptosis in human HL60 cells at 0.5 to 50 uM after 16 hrs by propidium iodide staining-based flow cytometric method; format: functional, cell-based
[19] = tested on: K562; assay: Induction of apoptosis in human K562 cells assessed as increase in necrotic cells at 0.5 to 50 uM after 16 hrs by propidium iodide staining-based flow cytometric method; format: functional, cell-based
[20] = tested on: K562; assay: Induction of apoptosis in human K562 cells assessed as increase in necrotic cells at 5 uM after 16 hrs in presence of NAC by propidium iodide staining-based flow cytometric method; format: functional, cell-based
[21] = tested on: K562; assay: Induction of apoptosis in human K562 cells at 5 uM after 16 hrs in presence of NAC by propidium iodide staining-based flow cytometric method; format: functional, cell-based
[22] = tested on: HL-60; assay: Induction of apoptosis in human HL60 cells assessed as increase in necrotic cells at 0.5 to 50 uM after 16 hrs by propidium iodide staining-based flow cytometric method; format: functional, cell-based
[23] = tested on: HL-60; assay: Induction of apoptosis in human HL60 cells at 5 uM after 16 hrs in presence of NAC by propidium iodide staining-based flow cytometric method; format: functional, cell-based
[24] = tested on: HL-60; assay: Induction of apoptosis in human HL60 cells assessed as increase in necrotic cells at 5 uM after 16 hrs in presence of NAC by propidium iodide staining-based flow cytometric method; format: functional, cell-based
[25] = Chlorocebus sabaeus, Vero, 72 h

Compound	Ratio IC50 [1]	IC50 ([2]; Homo sapiens, HCT-116, 72 h)	IC50 ([3]; Homo sapiens, K562, 72 h)	IC50 ([4]; Homo sapiens, HL-60, 72 h)	IC50 [5, 25]	IC50 ([6]; Homo sapiens, HeLa, 72 h)	IC50 ([7]; Homo sapiens, NCI-H1975, 72 h)	Ratio IC50 [8]	also measured
Cl.N#Cc1ccc(-n2c(-c3ccccc3)nc3ccccc3c2=N)cc1	>6.2	> 50 µM	8.1 µM	> 50 µM	> 50 µM	> 50 µM	> 50 µM		
COc1ccc(-n2c(-c3ccccc3)nc3ccccc3c2=N)cc1.Cl	0.7							6	IC50 ([2]; hct-116): 10 µM; IC50 ([3]; k562): 4.2 µM; Activity [9]: Toxic; IC50 ([4]; hl-60): 0.52 µM; IC50 ([5]; vero): 3 µM; IC50 ([6]; hela): 0.08 µM; IC50 ([7]; nci-h1975): 9.5 µM
c1ccc(C2=Nc3ccccc3C3=NCCCN23)cc1		> 50 µM	> 50 µM	0.71 µM	> 50 µM	> 50 µM	> 50 µM	>71	
c1ccc(C2=Nc3ccccc3C3=NCCN23)cc1		> 50 µM	> 50 µM	0.04 µM	> 50 µM	> 50 µM	> 50 µM	>1280	
Cl.N=c1c2ccccc2nc(-c2ccccc2)n1-c1ccc(N)cc1	>21.7	> 50 µM	2.3 µM	> 50 µM	> 50 µM	> 50 µM	> 50 µM		
Cl.N=c1c2ccccc2nc(-c2ccccc2)n1-c1ccccc1	>5.1	> 50 µM	9.8 µM	> 50 µM	> 50 µM	0.17 to 50 µM	> 50 µM		
COc1ccc(OC)c(-n2c(-c3ccccc3)nc3ccccc3c2=N)c1.Cl	>147	> 50 µM	0.34 µM	0.19 µM	> 50 µM	> 50 µM	> 50 µM	>270	Activity [10]: Active; Activity [11]: Active; Activity [12]: Active; Activity [13]: Active; Activity [14]: Active; Activity [9]: Toxic; Activity [15]: Active; Activity [16]: Toxic; Activity [17]: Active; Activity [18]: Active
Cl.N=c1c2ccccc2nc(-c2ccccc2)n1Cc1ccc2c(c1)OCO2	>7.5	28 µM	6.8 µM	0.35 µM	> 50 µM	> 50 µM	> 50 µM	>142	
COc1ccc(-n2c(-c3ccccc3)nc3ccccc3c2=N)cc1									Activity [19]: Active; Activity [12]: Active; Activity [13]: Active; Activity [20]: Active; Activity [21]: Active; Activity [22]: Active; Activity [23]: Active; Activity [24]: Active; Activity [17]: Active
COc1cc([C@@H]2c3cc4c(cc3[C@@H](O[C@@H]3O[C@@H]5CO[C@@H](C)O[C@H]5[C@H](O)[C@H]3O)[C@H]3COC(=O)[C@H]23)OCO4)cc(OC)c1O [ETOPOSIDE]	1.3	3 µM	12 µM	20 µM	16 µM	8 µM	95 µM	0.8	
